≈ marks a conversion by molar mass, not a printed value.
Assays:
[1] = biological target: Hsp90 Nuclear Binding Domain (NBD) (Candida albicans (strain SC5314 / ATCC MYA-2876) (Yeast), UniProt P46598); assay: Surface Plasmon Resonance (SPR) binding, C. albicans Hsp90 NBD; conditions: biotinylated Hsp90 NBD on streptavidin chip, 25° C., 1:1 binding model
Description: (§1) Surface Plasmon Resonance (SPR) Experiments. SPR experiments were performed on a Biacore S200 instrument at 25° C. Biotinylated Hsp90 Nuclear Binding Domain (NBD) was diluted to 40 μg/mL and immobilized on a streptavidin chip (Sensor Chip SA, GE Healthcare) at a density of 2000-2500 response units (RU) on the biosensor surface.
(§2) Recombinant Hsp90 NBDs were expressed and purified as previously described (Whitesell et al., Nat Commun 10, 402 (2019)) with the following modification; Hsp90 NBD expression constructs were modified to encode a C-terminal AviTag for site-specific on-column biotinylation with a BirA biotin-ligase kit (Avidity LLC; BirA-500). Stock protein solutions in 50% glycerol were stored at −20° C. until dilution into relevant buffers. Binding experiments were done in HBS-P (0.01 M HEPES, pH 7.4, 0.15 M NaCl, 0.005% v/v surfactant P20, GE Healthcare) with 2% DMSO at flow rate of 40 μL/min. Test compounds (dilution series) were injected with a 60 s association time and 600 s dissociation time. Resulting sensorgrams were analyzed with a fit to a 1:1 binding model, using BIA evaluation software.

[2] = biological target: Hsp90 Nuclear Binding Domain (NBD) (Aspergillus fumigatus, UniProt P40292); assay: Surface Plasmon Resonance (SPR) binding, A. fumigatus Hsp90 NBD; conditions: biotinylated Hsp90 NBD on streptavidin chip, 25° C., 1:1 binding model; NB undefined
Description: as §1, §2

CaCl2 = assay: Antifungal sensitivity testing (broth microdilution MIC); format: cell-based; conditions: Table 4; 96-well broth microdilution
Description: Antifungal Sensitivity Testing. Minimum inhibitory concentrations (MICs) were determined in flat bottom, 96-well plate format using a modified broth microdilution protocol as previously described (Singh et al., PLoS Pathog. 5, e1000532 (2009); LaFayette et al., PLoS Pathog. 6, 79-80 (2010)). Compounds were formulated in dimethyl sulfoxide (DMSO, Sigma-Aldrich Co.); fluconazole was dissolved in sterile ddH2O. Each compound was tested in duplicate in at least two independent experiments. To test for fungicidal activity, cultures from MIC plates were spotted on YPD agar plates using a spotter (Frogger, V&P Scientific, Inc.). Plates were photographed after 24 h of incubation at 30° C.

Hsp90 Nuclear Binding Domain (NBD) (Aspergillus fumigatus, UniProt P40292), sequence (P40292 whole entry, looked up, the tested form may be a part): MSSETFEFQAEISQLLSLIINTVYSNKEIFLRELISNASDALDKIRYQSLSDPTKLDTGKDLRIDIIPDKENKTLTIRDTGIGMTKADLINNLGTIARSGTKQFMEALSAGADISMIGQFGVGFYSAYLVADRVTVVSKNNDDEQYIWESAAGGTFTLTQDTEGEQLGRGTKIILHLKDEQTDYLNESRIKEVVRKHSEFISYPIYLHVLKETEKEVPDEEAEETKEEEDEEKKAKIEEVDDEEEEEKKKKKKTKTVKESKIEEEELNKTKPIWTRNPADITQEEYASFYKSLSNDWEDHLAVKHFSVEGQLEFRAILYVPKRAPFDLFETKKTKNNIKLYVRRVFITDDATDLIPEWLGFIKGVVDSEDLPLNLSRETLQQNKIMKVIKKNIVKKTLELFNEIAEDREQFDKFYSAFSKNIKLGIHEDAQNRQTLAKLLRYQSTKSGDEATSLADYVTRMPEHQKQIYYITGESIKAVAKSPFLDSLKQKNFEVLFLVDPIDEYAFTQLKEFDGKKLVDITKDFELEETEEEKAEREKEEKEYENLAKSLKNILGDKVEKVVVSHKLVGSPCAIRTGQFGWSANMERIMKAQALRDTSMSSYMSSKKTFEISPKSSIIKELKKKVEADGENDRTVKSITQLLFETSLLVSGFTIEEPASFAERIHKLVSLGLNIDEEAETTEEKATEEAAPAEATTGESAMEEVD
Hsp90 Nuclear Binding Domain (NBD) (Candida albicans (strain SC5314 / ATCC MYA-2876) (Yeast), UniProt P46598), sequence (P46598 1-218 limits assumed): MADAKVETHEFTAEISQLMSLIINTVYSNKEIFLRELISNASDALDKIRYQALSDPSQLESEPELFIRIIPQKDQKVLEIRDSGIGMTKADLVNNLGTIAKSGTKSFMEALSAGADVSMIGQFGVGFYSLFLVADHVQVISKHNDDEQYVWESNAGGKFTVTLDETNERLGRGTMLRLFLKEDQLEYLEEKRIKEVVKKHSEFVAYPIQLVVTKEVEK

Q: Which results are given for `Nc1nc2sc(-c3nc(C(=O)NCC(O)(Cn4cncn4)c4ccc(F)cc4F)no3)cc2n(-c2ccc3c(c2)N(c2ccccc2)CCO3)c1=O` (stereo not drawn) [Compound I-57, 5-(3-amino-2-oxo-1-(4-phenyl-3,4-dihydro-2H-benzo[b][1,4]oxazin-6-yl)-1,2-dihydrothieno[2,3-b]pyrazin-6-yl)-N-(2-(2,4-difluorophenyl)-2-hydroxy-3-(1H-1,2,4-triazol-1-yl)propyl)-1,2,4-oxadiazole-3-carboxamide]?
A: Kd [1]: 32.1 nM; Kd [2]: 46.9 nM; MIC50 (CaCl2): 20 µM (≈ 14.5 µg/mL)

Q: Which results are given for `Nc1nc2sc(CNC3CCN(C[C@](O)(Cn4cncn4)c4ccc(F)cc4F)CC3)cc2n(-c2ccc3c(c2)N(c2ccccc2)CCO3)c1=O` [Compound I-63, (S)-3-amino-6-(((1-(2-(2,4-difluorophenyl)-2-hydroxy-3-(1H-1,2,4-triazol-1-yl)propyl)piperidin-4-yl)amino)methyl)-1-(4-phenyl-3,4-dihydro-2H-benzo[b][1,4]oxazin-6-yl)thieno[2,3-b]pyrazin-2(1H)-one]?
A: Kd [1]: 377 nM; Kd [2]: 591 nM; MIC50 (CaCl2): 9 µM (≈ 6.53 µg/mL)

Q: With `Nc1nc2sc(CNC3CN(CC(O)(Cn4cncn4)c4ccc(F)cc4F)C3)cc2n(-c2ccc3c(c2)N(c2ccccc2)CCO3)c1=O` (stereo not drawn) [Compound I-66, 3-amino-6-(((1-(2-(2,4-difluorophenyl)-2-hydroxy-3-(1H-1,2,4-triazol-1-yl)propyl)azetidin-3-yl)amino)methyl)-1-(4-phenyl-3,4-dihydro-2H-benzo[b][1,4]oxazin-6-yl)thieno[2,3-b]pyrazin-2(1H)-one] as the compound, how does the Kd [1] read?
A: 1060 nM

Q: What about the Kd [2] of the same compound?
A: 1380 nM

Q: What about the MIC50 (CaCl2) of the same compound?
A: 22.5 µM (≈ 15.7 µg/mL)

Q: Which results are given for `Nc1nc2sc(CN3CCN(CC(O)(Cn4cncn4)c4ccc(F)cc4F)CC3)cc2n(-c2ccc3c(c2)N(c2ccccc2)CCO3)c1=O` (stereo not drawn) [Compound I-68, 3-amino-6-((4-(2-(2,4-difluorophenyl)-2-hydroxy-3-(1H-1,2,4-triazol-1-yl)propyl)piperazin-1-yl)methyl)-1-(4-phenyl-3,4-dihydro-2H-benzo[b][1,4]oxazin-6-yl)thieno[2,3-b]pyrazin-2(1H)-one]?
A: Kd [1]: 417 nM; Kd [2]: 545 nM; MIC50 (CaCl2): 0.75 µM (≈ 0.534 µg/mL)

Q: What does the source list for `Nc1nc2sc(CN[C@H]3CCN(CC(O)(Cn4cncn4)c4ccc(F)cc4F)C3)cc2n(-c2ccc3c(c2)N(c2ccccc2)CCO3)c1=O` (stereo partly drawn) [Compound I-71, 3-amino-6-((((3S)-1-(2-(2,4-difluorophenyl)-2-hydroxy-3-(1H-1,2,4-triazol-1-yl)propyl)pyrrolidin-3-yl)amino)methyl)-1-(4-phenyl-3,4-dihydro-2H-benzo[b][1,4]oxazin-6-yl)thieno[2,3-b]pyrazin-2(1H)-one]?
A: Kd [1]: 865 nM; Kd [2]: 1260 nM; MIC50 (CaCl2): 6.25 µM (≈ 4.45 µg/mL)

Q: Which results are given for `Nc1nc2sc(CNCCC(O)(Cn3cncn3)c3ccc(F)cc3F)cc2n(-c2ccc3c(c2)N(c2ccccc2)CCO3)c1=O` (stereo not drawn) [Compound I-74, 3-amino-6-(((3-(2,4-difluorophenyl)-3-hydroxy-4-(1H-1,2,4-triazol-1-yl)butyl)amino)methyl)-1-(4-phenyl-3,4-dihydro-2H-benzo[b][1,4]oxazin-6-yl)thieno[2,3-b]pyrazin-2(1H)-one]?
A: Kd [1]: 429 nM; Kd [2]: 853 nM; MIC50 (CaCl2): 12 µM (≈ 7.88 µg/mL)

Q: `Nc1nc2sc(CN[C@@H]3CCCN(CC(O)(Cn4cncn4)c4ccc(F)cc4F)C3)cc2n(-c2ccc3c(c2)N(c2ccccc2)CCO3)c1=O` (stereo partly drawn) [Compound I-75, 3-amino-6-((((3R)-1-(2-(2,4-difluorophenyl)-2-hydroxy-3-(1H-1,2,4-triazol-1-yl)propyl)piperidin-3-yl)amino)methyl)-1-(4-phenyl-3,4-dihydro-2H-benzo[b][1,4]oxazin-6-yl)thieno[2,3-b]pyrazin-2(1H)-one] was tested. Which Kd [1] did it give?
A: 233 nM

Q: And the Kd [2]?
A: 340 nM

Q: What about the MIC50 (CaCl2) of the same compound?
A: 4 µM (≈ 2.9 µg/mL)

Q: For `Nc1nc2sc(CN[C@@H]3CCN(CC(O)(Cn4cncn4)c4ccc(F)cc4F)C3)cc2n(-c2ccc3c(c2)N(c2ccccc2)CCO3)c1=O` (stereo partly drawn) [Compound I-77, 3-amino-6-((((3R)-1-(2-(2,4-difluorophenyl)-2-hydroxy-3-(1H-1,2,4-triazol-1-yl)propyl)pyrrolidin-3-yl)amino)methyl)-1-(4-phenyl-3,4-dihydro-2H-benzo[b][1,4]oxazin-6-yl)thieno[2,3-b]pyrazin-2(1H)-one], which Kd [1] is on record?
A: 187 nM

Q: And the Kd [2]?
A: 373 nM

Q: What about the MIC50 (CaCl2) of the same compound?
A: 12.5 µM (≈ 8.9 µg/mL)

Q: For `Nc1nc2sc(CN[C@H]3CCCN(CC(O)(Cn4cncn4)c4ccc(F)cc4F)C3)cc2n(-c2ccc3c(c2)N(c2ccccc2)CCO3)c1=O` (stereo partly drawn) [Compound I-79, 3-amino-6-((((3S)-1-(2-(2,4-difluorophenyl)-2-hydroxy-3-(1H-1,2,4-triazol-1-yl)propyl)piperidin-3-yl)amino)methyl)-1-(4-phenyl-3,4-dihydro-2H-benzo[b][1,4]oxazin-6-yl)thieno[2,3-b]pyrazin-2(1H)-one], which Kd [1] is on record?
A: 877 nM

Q: And the Kd [2]?
A: 1020 nM

Q: What about the MIC50 (CaCl2) of the same compound?
A: 3 µM (≈ 2.18 µg/mL)

Q: How did the Kd [1] turn out when `Nc1nc2sc(CN[C@H]3[C@@H]4CN(CC(O)(Cn5cncn5)c5ccc(F)cc5F)C[C@@H]43)cc2n(-c2ccc3c(c2)N(c2ccccc2)CCO3)c1=O` (stereo partly drawn) [Compound I-81, 3-amino-6-((((1R,5S,6s)-3-(2-(2,4-difluorophenyl)-2-hydroxy-3-(1H-1,2,4-triazol-1-yl)propyl)-3-azabicyclo[3.1.0]hexan-6-yl)amino)methyl)-1-(4-phenyl-3,4-dihydro-2H-benzo[b][1,4]oxazin-6-yl)thieno[2,3-b]pyrazin-2(1H)-one] was run?
A: 825 nM

Q: What about the Kd [2] of the same compound?
A: 1040 nM

Q: What about the MIC50 (CaCl2) of the same compound?
A: 2.5 µM (≈ 1.81 µg/mL)

Q: What does the source list for `Nc1nc2sc(CNCC(O)(Cn3cncn3)c3ccc(F)cc3F)cc2n(-c2ccc3c(c2)N(c2ccccc2)CCO3)c1=O` (stereo not drawn) [Compound I-82, 3-amino-6-(((2-(2,4-difluorophenyl)-2-hydroxy-3-(1H-1,2,4-triazol-1-yl)propyl)amino)methyl)-1-(4-phenyl-3,4-dihydro-2H-benzo[b][1,4]oxazin-6-yl)thieno[2,3-b]pyrazin-2(1H)-one]?
A: Kd [1]: 826 nM; Kd [2]: 1350 nM; MIC50 (CaCl2): 1.6 µM (≈ 1.03 µg/mL)

Q: Which results are given for `CC1(NCc2cc3c(nc(N)c(=O)n3-c3ccc4c(c3)N(c3ccccc3)CCO4)s2)CCN(CC(O)(Cn2cncn2)c2ccc(F)cc2F)CC1` (stereo not drawn) [Compound I-117, 3-amino-6-(((1-(2-(2,4-difluorophenyl)-2-hydroxy-3-(1H-1,2,4-triazol-1-yl)propyl)-4-methylpiperidin-4-yl)amino)methyl)-1-(4-phenyl-3,4-dihydro-2H-benzo[b][1,4]oxazin-6-yl)thieno[2,3-b]pyrazin-2(1H)-one]?
A: Kd [1]: 461 nM; Kd [2]: 298 nM; MIC50 (CaCl2): 3 µM (≈ 2.22 µg/mL)

Q: Which Kd [1] does the source give for `Nc1nc2sc(CN[C@@H]3CCN(CCC(O)(Cn4cncn4)c4ccc(F)cc4F)C3)cc2n(-c2ccc3c(c2)N(c2ccccc2)CCO3)c1=O` (stereo partly drawn) [Compound I-120, 3-amino-6-((((3R)-1-(3-(2,4-difluorophenyl)-3-hydroxy-4-(1H-1,2,4-triazol-1-yl)butyl)pyrrolidin-3-yl)amino)methyl)-1-(4-phenyl-3,4-dihydro-2H-benzo[b][1,4]oxazin-6-yl)thieno[2,3-b]pyrazin-2(1H)-one] here?
A: 179 nM

Q: What about the Kd [2] of the same compound?
A: 265 nM

Q: And the MIC50 (CaCl2)?
A: 17.5 µM (≈ 12.7 µg/mL)

Q: For `Nc1nc2sc(CN[C@@H]3CCN(CC[C@@](O)(Cn4cncn4)c4ccc(F)cc4F)C3)cc2n(-c2ccc3c(c2)N(c2ccccc2)CCO3)c1=O` [Compound I-123, 3-amino-6-((((R)-1-((S)-3-(2,4-difluorophenyl)-3-hydroxy-4-(1H-1,2,4-triazol-1-yl)butyl)pyrrolidin-3-yl)amino)methyl)-1-(4-phenyl-3,4-dihydro-2H-benzo[b][1,4]oxazin-6-yl)thieno[2,3-b]pyrazin-2(1H)-one], which Kd [1] is on record?
A: 145 nM

Q: What about the Kd [2] of the same compound?
A: 238 nM

Q: And the MIC50 (CaCl2)?
A: 11.5 µM (≈ 8.35 µg/mL)

Reference: patent publication US20240424113A1, “CONJUGATES COMPRISING ANTIFUNGALS AND HEAT SHOCK PROTEIN 90 (HSP90) INHIBITORS AND METHODS OF USE THEREOF” (Bright Angel Therapeutics Inc., priority 2021, published 2024)
